Laboratory results as given in ChEMBL document CHEMBL5108088, “N-Methylamide-structured SB366791 derivatives with high TRPV1 antagonistic activity: toward PET radiotracers to visualize TRPV1” (RSC Med Chem, 2022).
pIC50: −log10 of the molar value.

Tests used:
[1] = molecular target: Transient receptor potential cation channel subfamily V member 1 (Rattus norvegicus, UniProt O35433); assay: Antagonist activity at rat TRPV1 expressed in human HEK293 cells assessed as inhibition of capsaicin-induced influx by measuring intracellular calcium accumulation by fura-2 dye based fluorimetric assay; format: cell-based
[2] = Drug uptake in iv dosed Sprague-Dawley rat brain striatum assessed as high radioactivity in striatum and measured upto 60 mins by PET imaging analysis; format: ADME, organism-based; conditions: in vivo, 1 h
[3] = Drug uptake in iv dosed Sprague-Dawley rat brain thalamus assessed as high radioactivity and measured upto 60 mins by PET imaging analysis; format: ADME, organism-based; conditions: in vivo, 1 h
[4] = Drug uptake in iv dosed Sprague-Dawley rat brain hypothalamus assessed as high radioactivity in hypothalamus and measured upto 60 mins by PET imaging analysis; format: ADME, organism-based; conditions: in vivo, 1 h
[5] = Drug uptake in iv dosed Sprague-Dawley rat brain medulla oblongata assessed as high radioactivity in medulla oblongata and measured upto 60 mins by PET imaging analysis; format: ADME, organism-based; conditions: in vivo, 1 h
[6] = Drug uptake in iv dosed Sprague-Dawley rat brain assessed as high radioactivity in brain cortical area and measured upto 60 mins by PET imaging analysis; format: ADME, organism-based; conditions: in vivo, 1 h
[7] = Drug uptake in iv dosed Sprague-Dawley rat brain cerebellum assessed as high radioactivity in brain cerebellum and measured upto 60 mins by PET imaging analysis; format: ADME, organism-based; conditions: in vivo, 1 h
[8] = Drug uptake in iv dosed Sprague-Dawley rat liver assessed as high radioactivity in liver and measured upto 60 mins by PET imaging analysis; format: ADME, organism-based; conditions: in vivo, 1 h
[9] = Drug uptake in iv dosed Sprague-Dawley rat gastrointestinal tract assessed as high radioactivity in gastrointestinal tract and measured upto 60 mins by PET imaging analysis; format: ADME, organism-based; conditions: in vivo, 1 h
[10] = Drug uptake in iv dosed Sprague-Dawley rat urinary bladder assessed as high radioactivity in urinary bladder and measured upto 60 mins by PET imaging analysis; format: ADME, organism-based; conditions: in vivo, 1 h
[11] = Drug uptake in iv dosed Sprague-Dawley rat skin assessed as high radioactivity in body surface and measured upto 60 mins by PET imaging analysis; format: ADME, organism-based, Skin of body; conditions: in vivo, 1 h

Transient receptor potential cation channel subfamily V member 1, sequence (O35433 whole entry): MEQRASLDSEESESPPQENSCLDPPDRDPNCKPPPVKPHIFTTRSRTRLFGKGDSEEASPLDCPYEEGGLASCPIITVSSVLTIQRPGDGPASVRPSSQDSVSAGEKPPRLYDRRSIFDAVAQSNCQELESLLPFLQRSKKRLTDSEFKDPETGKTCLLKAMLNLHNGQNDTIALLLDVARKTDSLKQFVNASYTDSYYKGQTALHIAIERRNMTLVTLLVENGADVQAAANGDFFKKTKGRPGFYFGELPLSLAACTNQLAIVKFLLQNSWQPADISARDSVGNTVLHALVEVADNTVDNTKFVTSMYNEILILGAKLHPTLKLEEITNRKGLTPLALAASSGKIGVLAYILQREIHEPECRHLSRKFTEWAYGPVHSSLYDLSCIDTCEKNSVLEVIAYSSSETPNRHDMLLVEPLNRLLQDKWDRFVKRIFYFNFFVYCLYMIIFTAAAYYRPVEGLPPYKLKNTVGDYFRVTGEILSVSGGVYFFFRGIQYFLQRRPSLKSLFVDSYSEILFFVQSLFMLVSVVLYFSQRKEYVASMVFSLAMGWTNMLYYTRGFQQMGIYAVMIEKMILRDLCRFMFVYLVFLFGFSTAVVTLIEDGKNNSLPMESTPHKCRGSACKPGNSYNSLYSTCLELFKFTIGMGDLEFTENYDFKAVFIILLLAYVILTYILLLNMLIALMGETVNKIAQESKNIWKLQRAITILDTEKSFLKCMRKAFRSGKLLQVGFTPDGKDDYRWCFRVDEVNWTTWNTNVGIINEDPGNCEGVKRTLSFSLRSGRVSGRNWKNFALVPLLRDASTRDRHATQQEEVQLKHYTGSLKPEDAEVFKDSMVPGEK

Row | pIC50 [1] | Drug uptake [2] | Drug uptake [3] | Drug uptake [4] | Drug uptake [5] | Drug uptake [6] | SMILES | also measured
1 | 5.43 |  |  |  |  |  | COc1cccc(NC(=O)/C=C/c2ccc(Cl)cc2)c1 | 
2 | 5.96 |  |  |  |  |  | CN(C(=O)/C=C/c1ccc(Cl)cc1)c1cccc(OCCCF)c1 | 
3 | 5.38 |  |  |  |  |  | CN(C(=O)/C=C/c1ccc(Cl)cc1)c1cccc(OCCF)c1 | 
4 | 5.89 |  |  |  |  |  | COc1cccc(N(C)C(=O)/C=C/c2ccc(Cl)cc2)c1 | 
5 |  | Active | Active | Active | Active | Active | CN(C(=O)/C=C/c1ccc(Cl)cc1)c1cccc(OCCC[18F])c1 | 
6 |  | Active | Active | Active | Active | Active | CN(C(=O)/C=C/c1ccc(Cl)cc1)c1cccc(O[11CH3])c1 | Drug uptake [7]: Active; Drug uptake [8]: Active; Drug uptake [9]: Active; Drug uptake [10]: Active; Drug uptake [11]: Active
